Measurements taken from US20260028354A1, “TETRAHYDRONAPHTHALENE DERIVATIVES AS ESTROGEN RECEPTOR DEGRADERS” (REGENT OF THE UNIVERSITY OF MICHIGAN, priority 2022, published 2026).
Read-outs that look alike come from different tables or passages of the source.

Legend:
[1] = Western blot analysis for "B" compounds; assay type: cell-based; conditions: read-out: Traditional Western Degradation Potency (DC50)
Summary of the method: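 Target protein levels given as relative mean band intensity over GAPDH from scanned immunoblots. Lysates of treated cells in RIPA buffer, equalized by BCA, separated on 10% gels and transferred to PVDF.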

[2] = Cell growth assay (WST-8) for "B" compounds; assay type: cell-based; conditions: T47D cell line, read-out: Cell growth Inhibition in T47D cell line IC50
Procedure: Cell Growth Assay. The cells were seeded at 1500/well in 96 well plates overnight. One day after the seeding, they were treated with indicated doses of compounds respectively, 4 days after the compound treatment, 10% WST-8 reagent was added to the culture medium and incubate in a CO2 incubator at 37° C. for 2.5 hours. Before reading, the plate was mixed gently on an orbital shaker for one minute to ensure homogeneous distribution of color. The absorbance was measured of each sample using a microplate reader at a wavelength of 450 nm. The relative absorbance was calculated against the vehicle control from three individually repeats.

Structure (SMILES) | DC50 [1] [nM] | IC50 ([2]; T47D) [nM] | IC50 [2] [nM]
C[C@H]1CC2(CCN(c3ccc([C@@H]4c5ccc(O)cc5CC[C@@H]4c4ccccc4)cc3)CC2)CN1CC(=O)N1Cc2cc3c(cc2C1)C(=O)N(C1CCC(=O)NC1=O)C3=O (mixture of isomers) [Compound B30, 2-(2,6-dioxopiperidin-3-yl)-6-(2-((S)-8-(4-((1R,2S)-6-hydroxy-2-phenyl-1,2,3,4-tetrahydronaphthalen-1-yl)phenyl)-3-methyl-2,8-diazaspiro[4.5]decan-2-yl)acetyl)-6,7-dihydropyrrolo[3,4-f]isoindole-1,3(2H,5H)-dione] | > 100 | > 10 | –
O=C1CCC(N2C(=O)c3cc4c(cc3C2=O)CN(CC(=O)N2CC3(CCN(c5ccc([C@@H]6c7ccc(O)cc7CC[C@@H]6c6ccccc6)cc5F)CC3)C2)C4)C(=O)N1 (mixture of isomers) [Compound B43, 2-(2,6-dioxopiperidin-3-yl)-6-(2-(7-(2-fluoro-4-((1R,2S)-6-hydroxy-2-phenyl-1,2,3,4-tetrahydronaphthalen-1-yl)phenyl)-2,7-diazaspiro[3.5]nonan-2-yl)-2-oxoethyl)-6,7-dihydropyrrolo[3,4-f]isoindole-1,3(2H,5H)-dione] | > 100 | 1 to 10 | –
O=C1CCC(N2C(=O)c3cc4c(cc3C2=O)CN(CC(=O)N2CCC3(CC2)CCN(c2c(F)cc([C@@H]5c6ccc(O)cc6CC[C@@H]5c5ccccc5)cc2F)CC3)C4)C(=O)N1 (mixture of isomers) [Compound B45, 6-(2-(9-(2,6-difluoro-4-((1R,2S)-6-hydroxy-2-phenyl-1,2,3,4-tetrahydronaphthalen-1-yl)phenyl)-3,9-diazaspiro[5.5]undecan-3-yl)-2-oxoethyl)-2-(2,6-dioxopiperidin-3-yl)-6,7-dihydropyrrolo[3,4-f]isoindole-1,3(2H,5H)-dione] | > 100 | > 10 | –
O=C1CCC(N2C(=O)c3cc4c(cc3C2=O)CN(CC(=O)N2CCC3(CC2)CCN(c2cc(F)c([C@@H]5c6ccc(O)cc6CC[C@@H]5c5ccccc5)c(F)c2)CC3)C4)C(=O)N1 (mixture of isomers) [Compound B46, 6-(2-(9-(3,5-difluoro-4-((1S,2S)-6-hydroxy-2-phenyl-1,2,3,4-tetrahydronaphthalen-1-yl)phenyl)-3,9-diazaspiro[5.5]undecan-3-yl)-2-oxoethyl)-2-(2,6-dioxopiperidin-3-yl)-6,7-dihydropyrrolo[3,4-f]isoindole-1,3(2H,5H)-dione] | > 100 | > 10 | –
O=C1CCC(N2C(=O)c3cc4c(cc3C2=O)CCN(CC(=O)N2CCC3(CC2)CCN(c2ccc([C@@H]5c6ccc(O)cc6CC[C@@H]5c5ccc(F)cc5)cc2)CC3)CC4)C(=O)N1 (stereo partly drawn) [Compound B52, 2-(2,6-dioxopiperidin-3-yl)-7-(2-(9-(4-((1R,2S)-2-(4-fluorophenyl)-6-hydroxy-1,2,3,4-tetrahydronaphthalen-1-yl)phenyl)-3,9-diazaspiro[5.5]undecan-3-yl)-2-oxoethyl)-6,7,8,9-tetrahydroazepino[4,5-f]isoindole-1,3(2H,5H)-dione] | > 100 | 1 to 10 | –
O=C1CCC(N2C(=O)c3cc4c(cc3C2=O)CN(C(=O)C2CCN(CC3CCN(c5ccc([C@@H]6c7ccc(O)cc7CC[C@@H]6c6ccccc6)cc5)CC3)CC2)C4)C(=O)N1 (stereo partly drawn) [Compound B57, 2-(2,6-dioxopiperidin-3-yl)-6-(1-((1-(4-((1R,2S)-6-hydroxy-2-phenyl-1,2,3,4-tetrahydronaphthalen-1-yl)phenyl)piperidin-4-yl)methyl)piperidine-4-carbonyl)-6,7-dihydropyrrolo[3,4-f]isoindole-1,3(2H,5H)-dione] | > 100 | 1 to 10 | –

More lines, main results first:

DC50 [1] [nM] | Structure (SMILES) | IC50 ([2]; T47D) [nM] | IC50 [2] [nM]
10 to 100 | C[C@H]1CC2(CCN(C(=O)CN3Cc4cc5c(cc4C3)C(=O)N(C3CCC(=O)NC3=O)C5=O)CC2)CN1c1ccc([C@@H]2c3ccc(O)cc3CC[C@@H]2c2ccccc2)cc1 (mixture of isomers) [Compound B24, 2-(2,6-dioxopiperidin-3-yl)-6-(2-((S)-2-(4-((1R,2S)-6-hydroxy-2-phenyl-1,2,3,4-tetrahydronaphthalen-1-yl)phenyl)-3-methyl-2,8-diazaspiro[4.5]decan-8-yl)-2-oxoethyl)-6,7-dihydropyrrolo[3,4-f]isoindole-1,3(2H,5H)-dione] | > 10 | –
10 to 100 | O=C1CCC(N2C(=O)c3cc4c(cc3C2=O)CN(CC(=O)N2CC3(CCN(c5ccc([C@@H]6c7ccc(O)cc7CC[C@@H]6c6ccccc6)c(F)c5)CC3)C2)C4)C(=O)N1 (mixture of isomers) [Compound B44, 2-(2,6-dioxopiperidin-3-yl)-6-(2-(7-(3-fluoro-4-((1S,2S)-6-hydroxy-2-phenyl-1,2,3,4-tetrahydronaphthalen-1-yl)phenyl)-2,7-diazaspiro[3.5]nonan-2-yl)-2-oxoethyl)-6,7-dihydropyrrolo[3,4-f]isoindole-1,3(2H,5H)-dione] | > 10 | –
10 to 100 | O=C1CCC(N2C(=O)c3cc4c(cc3C2=O)CN(CC(=O)N2CCC3(CC2)CCN(c2ccc([C@@H]5c6ccc(O)cc6CC[C@@H]5C5CCCCC5)cc2)CC3)C4)C(=O)N1 (mixture of isomers) [Compound B47, 6-(2-(9-(4-((1R,2R)-2-cyclohexyl-6-hydroxy-1,2,3,4-tetrahydronaphthalen-1-yl)phenyl)-3,9-diazaspiro[5.5]undecan-3-yl)-2-oxoethyl)-2-(2,6-dioxopiperidin-3-yl)-6,7-dihydropyrrolo[3,4-f]isoindole-1,3(2H,5H)-dione] | 1 to 10 | –
10 to 100 | O=C1CCC(N2C(=O)c3cc4c(cc3C2=O)CN(CC(=O)N2CCC3(CC2)CCN(c2ccc([C@@H]5c6ccc(O)cc6CC[C@@H]5C5CCC(F)(F)CC5)cc2)CC3)C4)C(=O)N1 (mixture of isomers) [Compound B48, 6-(2-(9-(4-((1R,2R)-2-(4,4-difluorocyclohexyl)-6-hydroxy-1,2,3,4-tetrahydronaphthalen-1-yl)phenyl)-3,9-diazaspiro[5.5]undecan-3-yl)-2-oxoethyl)-2-(2,6-dioxopiperidin-3-yl)-6,7-dihydropyrrolo[3,4-f]isoindole-1,3(2H,5H)-dione] | 1 to 10 | –
10 to 100 | O=C1CCC(N2C(=O)c3cc4c(cc3C2=O)CN(CC(=O)N2CCC3(CC2)CCN(c2ccc([C@@H]5c6ccc(B(O)O)cc6CC[C@@H]5c5ccccc5)cc2)CC3)C4)C(=O)N1 (mixture of isomers) [Compound B50, ((5R,6S)-5-(4-(9-(2-(6-(2,6-dioxopiperidin-3-yl)-5,7-dioxo-3,5,6,7-tetrahydropyrrolo[3,4-f]isoindol-2(1H)-yl)acetyl)-3,9-diazaspiro[5.5]undecan-3-yl)phenyl)-6-phenyl-5,6,7,8-tetrahydronaphthalen-2-yl)boronic acid] | > 10 | –
10 to 100 | O=C1CCC(N2C(=O)c3cc4c(cc3C2=O)CN(CC(=O)N2CCC3(CC2)CCN(c2ccc([C@@H]5c6ccc(O)cc6CCC56CCCC6)cc2)CC3)C4)C(=O)N1 (stereo in doubt) [Compound B49, 2-(2,6-dioxopiperidin-3-yl)-6-(2-(9-(4-(6'-hydroxy-3',4'-dihydro-1'H-spiro[cyclopentane-1,2'-naphthalen]-1'-yl)phenyl)-3,9-diazaspiro[5.5]undecan-3-yl)-2-oxoethyl)-6,7-dihydropyrrolo[3,4-f]isoindole-1,3(2H,5H)-dione] | 1 to 10 | –
< 10 | O=C1CCC(N2C(=O)c3cc4c(cc3C2=O)CN(CC(=O)N2CC3(CCN(c5ccc([C@@H]6c7ccc(O)cc7CC[C@@H]6c6ccccc6)cc5)CC3)C2)C4)C(=O)N1 (stereo partly drawn) [Compound B28, 2-(2,6-dioxopiperidin-3-yl)-6-(2-(7-(4-((1R,2S)-6-hydroxy-2-phenyl-1,2,3,4-tetrahydronaphthalen-1-yl)phenyl)-2,7-diazaspiro[3.5]nonan-2-yl)-2-oxoethyl)-6,7-dihydropyrrolo[3,4-f]isoindole-1,3(2H,5H)-dione] | – | 1 to 10
10 to 100 | O=C1CCC(N2C(=O)c3cc4c(cc3C2=O)CN(CC2CCN(C(=O)C3CCN(c5ccc([C@@H]6c7ccc(O)cc7CC[C@@H]6c6ccccc6)cc5)CC3)CC2)C4)C(=O)N1 (stereo partly drawn) [Compound B56, 2-(2,6-dioxopiperidin-3-yl)-6-((1-(1-(4-((1R,2S)-6-hydroxy-2-phenyl-1,2,3,4-tetrahydronaphthalen-1-yl)phenyl)piperidine-4-carbonyl)piperidin-4-yl)methyl)-6,7-dihydropyrrolo[3,4-f]isoindole-1,3(2H,5H)-dione] | 1 to 10 | –
< 10 | O=C1CCC(N2C(=O)c3cc4c(cc3C2=O)CN(C2CCN(CC3CCN(c5ccc([C@@H]6c7ccc(O)cc7CC[C@@H]6c6ccccc6)cc5)CC3)CC2)C4)C(=O)N1 (stereo partly drawn) [Compound B64, 2-(2,6-dioxopiperidin-3-yl)-6-(1-((1-(4-((1R,2S)-6-hydroxy-2-phenyl-1,2,3,4-tctrahydronaphthalcn-1-yl)phenyl)pipcridin-4-yl)methyl)piperidin-4-yl)-6,7-dihydropyrrolo[3,4-f]isoindole-1,3(2H,5H)-dione] | 1 to 10 | –
10 to 100 | O=C1CCC(N2C(=O)c3cc4c(cc3C2=O)CN(CC(=O)N2CCC3(CC2)CCN(c2ccc([C@@H]5c6ccc(O)cc6CC[C@@H]5c5ccccc5)cc2)CC3)C4)C(=O)N1 (stereo partly drawn) [Compound B133, 2-(2,6-dioxopiperidin-3-yl)-6-(2-(9-(4-((1R,2S)-6-hydroxy-2-phenyl-1,2,3,4-tetrahydronaphthalen-1-yl)phenyl)-3,9-diazaspiro[5.5]undecan-3-yl)-2-oxoethyl)-6,7-dihydropyrrolo[3,4-f]isoindole-1,3(2H,5H)-dione] | – | 1 to 10
